Converted amounts (≈) assume the structure as drawn.
Assays:
Assay type in all cases: functional, cell-based
[1] = test system: MDA-MB-435; assay: Cytotoxicity against human MDA-MB-435 cells by MTT method
[2] = test system: MCF7; assay: Cytotoxicity against human MCF7 cells by MTT method
[3] = test system: HepG2; assay: Cytotoxicity against human HepG2 cells by MTT method

Question: Which results are given for CC(C)[C@H]1C=C[C@]2(C)Oc3c(C(=O)/C=C/c4ccccc4)c(O)cc(O)c3C2C1 (stereo partly drawn) [Sumadain C]?
Answer: IC50 [1]: 12.8 µg/mL (≈ 32.7 µM); IC50 [2]: 15.9 µg/mL (≈ 40.8 µM); IC50 [3]: 13 µg/mL (≈ 33.3 µM)

Source: ChEMBL document CHEMBL1151867, “Two novel monoterpene-chalcone conjugates isolated from the seeds of Alpinia katsumadai” (Bioorg Med Chem Lett, 2009)
